Reference: patent publication US9029325B2, “Amylin analogues and pharmaceutical compositions thereof” (Novo Nordisk A/S, priority 2011, dated 2015)
Starred links: 1 amine or outer side, 2 acyl side, 3 side chain; linkers in the order of their positions; H or OH if unused. Positions of bridges follow the written chain, without caps; N, C: chain ends. Residues, ends and D or L forms follow the SMILES beside them. *: point of attachment. C20 diacid = O=C(O)CCCCCCCCCCCCCCCCCCC(=O)*; C18 diacid = O=C(O)CCCCCCCCCCCCCCCCC(=O)*; γGlu = O=C(O)[C@H](CCC(=O)[*:2])N[*:1]

Experiment: Assay (I) efficacy testing on appetite (food intake), ad libitum fed rat model
Format: in vivo, Sprague Dawley (SD) rats
From the text: Sprague Dawley (SD) rats from Taconic Europe, Denmark are used for the experiments. The rats have a body weight 200-250 g at the start of experiment. The rats arrive at least 10-14 days before start of experiment to allow acclimatization to experimental settings. During this period the animals are handled at least 2 times. After arrival rats are housed individually for one week in a reversed light/dark phase (meaning that lights are off during daytime and on during nighttime) […]. Since rats are normally active and eat their major part of their daily food intake during the dark period, rats are dosed in the morning right before lights are turned off. This set-up results in the lowest data variation and highst test sensitivity. The experiment is conducted in the rats' home cages and rats have free access to food and water througout the acclimatization period and the experiment period. Each dose of derivative is tested in a group of 5-8 rats. A vehicle group of 6-8 rats is included in each set of testing. Rats are dosed once according to body weight with a 0.01-3 mg/kg solution administered intraperitoneally (ip), orally (po) or subcutaneously (sc). The time of dosing is recorded for each group. After dosing, the rats are returned to their home cages, where they then have access to food and water. The food consumption is recorded individually continuously by on-line registration or manually every hour for 7 hours, and then after 24 h and sometimes 48 h. At the end of the experimental session, the animals are euthanised.
The individual data are recorded in Microsoft excel sheets. Outliers are excluded after applying the Grubbs statistical evaluation test for outliers, and the result is presented graphically using the GraphPad Prism program.

Structure (SMILES) | Food intake reduction 0-24 h 3 nmol/kg (%) | Food intake reduction 24-48 h 3 nmol/kg (%) | Food intake reduction 0-24 h 30 nmol/kg (%) | Food intake reduction 24-48 h 30 nmol/kg (%)
CC[C@H](C)[C@H](NC(=O)[C@@H]1CCCN1C(=O)CNC(=O)[C@H](Cc1ccccc1)NC(=O)[C@H](CC(N)=O)NC(=O)[C@H](CC(N)=O)NC(=O)[C@H](CO)NC(=O)[C@H](CO)NC(=O)[C@H](CCCNC(=N)N)NC(=O)[C@H](Cc1c[nH]cn1)NC(=O)[C@H](CC(C)C)NC(=O)[C@H](Cc1ccccc1)NC(=O)[C@H](CCC(=O)O)NC(=O)[C@H](C)NC(=O)[C@H](CC(C)C)NC(=O)[C@H](CCCNC(=N)N)NC(=O)[C@H](CCC(N)=O)NC(=O)[C@@H](NC(=O)[C@H](C)NC(=O)[C@@H]1CSSC[C@H](NC(=O)[C@H](CCC(=O)O)NC(=O)CC[C@H](NC(=O)CCCCCCCCCCCCCCCCCCC(=O)O)C(=O)O)C(=O)N[C@@H](CC(N)=O)C(=O)N[C@@H]([C@@H](C)O)C(=O)N[C@@H](C)C(=O)N[C@@H]([C@@H](C)O)C(=O)N1)[C@@H](C)O)C(=O)N[C@@H](CC(C)C)C(=O)N1CCC[C@H]1C(=O)N1CCC[C@H]1C(=O)N[C@H](C(=O)N[C@@H](CC(N)=O)C(=O)N[C@H](C(=O)NCC(=O)N[C@@H](CO)C(=O)N[C@@H](CC(N)=O)C(=O)N[C@H](C(=O)N1CCC[C@H]1C(N)=O)[C@@H](C)O)C(C)C)[C@@H](C)O [Example 10, N-alpha-[(S)-4-Carboxy-4-(19-carboxynonadecanoylamino)butyryl]-[Glu1, Glu14, His17, Arg18, Pro37]-pramlintide] ({C20 diacid-γGlu}-ECNTATCATQRLAEFLHRSSNNFGPILPPTNVGSNTP-NH2; disulfide 2-7) | 50 | 40 |  | 
CC[C@H](C)[C@H](NC(=O)[C@@H]1CCCN1C(=O)CNC(=O)[C@H](Cc1ccccc1)NC(=O)[C@H](CC(N)=O)NC(=O)[C@H](CC(N)=O)NC(=O)[C@H](CO)NC(=O)[C@H](CO)NC(=O)[C@H](Cc1c[nH]cn1)NC(=O)[C@H](Cc1c[nH]cn1)NC(=O)[C@H](CC(C)C)NC(=O)[C@H](Cc1ccccc1)NC(=O)[C@H](CCC(=O)O)NC(=O)[C@H](C)NC(=O)[C@H](CC(C)C)NC(=O)[C@H](CCCNC(=N)N)NC(=O)[C@H](CCC(N)=O)NC(=O)[C@@H](NC(=O)[C@H](C)NC(=O)[C@@H]1CSSC[C@H](NC(=O)[C@H](Cc2c[nH]cn2)NC(=O)[C@H](Cc2c[nH]cn2)NC(=O)[C@H](Cc2c[nH]cn2)NC(=O)CC[C@H](NC(=O)CCCCCCCCCCCCCCCCCCC(=O)O)C(=O)O)C(=O)N[C@@H](CC(N)=O)C(=O)N[C@@H]([C@@H](C)O)C(=O)N[C@@H](C)C(=O)N[C@@H]([C@@H](C)O)C(=O)N1)[C@@H](C)O)C(=O)N[C@@H](CC(C)C)C(=O)N1CCC[C@H]1C(=O)N1CCC[C@H]1C(=O)N[C@H](C(=O)N[C@@H](CC(N)=O)C(=O)N[C@H](C(=O)NCC(=O)N[C@@H](CO)C(=O)N[C@@H](CC(N)=O)C(=O)N[C@H](C(=O)N[C@@H](Cc1ccc(O)cc1)C(N)=O)[C@@H](C)O)C(C)C)[C@@H](C)O [Example 11, N-alpha-[(S)-4-Carboxy-4-(19-carboxynonadecanoylamino)butyryl]-His-His-[His1,Glu14,His17]-pramlintide] ({C20 diacid-γGlu}-HHHCNTATCATQRLAEFLHHSSNNFGPILPPTNVGSNTY-NH2; disulfide 4-9) |  |  | 87 | 92
CC[C@H](C)[C@H](NC(=O)[C@@H]1CCCN1C(=O)CNC(=O)[C@H](Cc1ccccc1)NC(=O)[C@H](CC(N)=O)NC(=O)[C@H](CC(N)=O)NC(=O)[C@H](CO)NC(=O)[C@H](CO)NC(=O)[C@H](Cc1c[nH]cn1)NC(=O)[C@H](Cc1c[nH]cn1)NC(=O)[C@H](CC(C)C)NC(=O)[C@H](Cc1ccccc1)NC(=O)[C@H](CCC(=O)O)NC(=O)[C@H](C)NC(=O)[C@H](CC(C)C)NC(=O)[C@H](CCCNC(=N)N)NC(=O)[C@H](CCC(N)=O)NC(=O)[C@@H](NC(=O)[C@H](C)NC(=O)[C@@H]1CSSC[C@H](NC(=O)[C@H](CCCCN)NC(=O)CC[C@H](NC(=O)CCCCCCCCCCCCCCCCCCC(=O)O)C(=O)O)C(=O)N[C@@H](CC(N)=O)C(=O)N[C@@H]([C@@H](C)O)C(=O)N[C@@H](C)C(=O)N[C@@H]([C@@H](C)O)C(=O)N1)[C@@H](C)O)C(=O)N[C@@H](CC(C)C)C(=O)N1CCC[C@H]1C(=O)N1CCC[C@H]1C(=O)N[C@H](C(=O)N[C@@H](CC(N)=O)C(=O)N[C@H](C(=O)NCC(=O)N[C@@H](CO)C(=O)N[C@@H](CC(N)=O)C(=O)N[C@H](C(=O)N[C@@H](Cc1ccc(O)cc1)C(N)=O)[C@@H](C)O)C(C)C)[C@@H](C)O [Example 27, N-alpha-[(S)-4-Carboxy-4-(19-carboxynonadecanoylamino)butyryl]-[Glu14,His17]-pramlintide] ({C20 diacid-γGlu}-KCNTATCATQRLAEFLHHSSNNFGPILPPTNVGSNTY-NH2; disulfide 2-7) | 56 | 53 |  | 
CC[C@H](C)[C@H](NC(=O)[C@@H]1CCCN1C(=O)CNC(=O)[C@H](Cc1ccccc1)NC(=O)[C@H](CC(N)=O)NC(=O)[C@H](CC(N)=O)NC(=O)[C@H](CO)NC(=O)[C@H](CO)NC(=O)[C@H](Cc1c[nH]cn1)NC(=O)[C@H](Cc1c[nH]cn1)NC(=O)[C@H](CC(C)C)NC(=O)[C@H](Cc1ccccc1)NC(=O)[C@H](CCC(=O)O)NC(=O)[C@H](C)NC(=O)[C@H](CC(C)C)NC(=O)[C@H](CCCNC(=N)N)NC(=O)[C@H](CCC(N)=O)NC(=O)[C@@H](NC(=O)[C@H](C)NC(=O)[C@@H]1CSSC[C@H](NC(=O)[C@H](CCCCN)NC(=O)[C@H](CCC(=O)O)NC(=O)CC[C@H](NC(=O)CCCCCCCCCCCCCCCCC(=O)O)C(=O)O)C(=O)N[C@@H](CC(N)=O)C(=O)N[C@@H]([C@@H](C)O)C(=O)N[C@@H](C)C(=O)N[C@@H]([C@@H](C)O)C(=O)N1)[C@@H](C)O)C(=O)N[C@@H](CC(C)C)C(=O)N1CCC[C@H]1C(=O)N1CCC[C@H]1C(=O)N[C@H](C(=O)N[C@@H](CC(N)=O)C(=O)N[C@H](C(=O)NCC(=O)N[C@@H](CO)C(=O)N[C@@H](CC(N)=O)C(=O)N[C@H](C(=O)N[C@@H](Cc1ccc(O)cc1)C(N)=O)[C@@H](C)O)C(C)C)[C@@H](C)O [Example 42, N-alpha-[(S)-4-Carboxy-4-(17-carboxyheptadecanoylamino)butyryl]-Glu-[Glu14, His17]-pramlintide] ({C18 diacid-γGlu}-EKCNTATCATQRLAEFLHHSSNNFGPILPPTNVGSNTY-NH2; disulfide 3-8 (inferred); C-terminus assumed) | 45 | 5 |  | 
CC[C@H](C)[C@H](NC(=O)[C@@H]1CCCN1C(=O)CNC(=O)[C@H](Cc1ccccc1)NC(=O)[C@H](CC(N)=O)NC(=O)[C@H](CC(N)=O)NC(=O)[C@H](CO)NC(=O)[C@H](CO)NC(=O)[C@H](Cc1c[nH]cn1)NC(=O)[C@H](Cc1c[nH]cn1)NC(=O)[C@H](CC(C)C)NC(=O)[C@H](Cc1ccccc1)NC(=O)[C@H](CCC(=O)O)NC(=O)[C@H](C)NC(=O)[C@H](CC(C)C)NC(=O)[C@H](CCCNC(=N)N)NC(=O)[C@H](CCC(N)=O)NC(=O)[C@@H](NC(=O)[C@H](C)NC(=O)[C@@H]1CSSC[C@H](NC(=O)[C@H](CCCCN)NC(=O)CC[C@H](NC(=O)CCCCCCCCCCCCCCCCCCC(=O)O)C(=O)O)C(=O)N[C@@H](CC(N)=O)C(=O)N[C@@H]([C@@H](C)O)C(=O)N[C@@H](C)C(=O)N[C@@H]([C@@H](C)O)C(=O)N1)[C@@H](C)O)C(=O)N[C@@H](CC(C)C)C(=O)N1CCC[C@H]1C(=O)N1CCC[C@H]1C(=O)N[C@H](C(=O)N[C@@H](CC(N)=O)C(=O)N[C@H](C(=O)NCC(=O)N[C@@H](CO)C(=O)N[C@@H](Cc1c[nH]cn1)C(=O)N[C@H](C(=O)N[C@@H](Cc1ccc(O)cc1)C(N)=O)[C@@H](C)O)C(C)C)[C@@H](C)O [Example 55, N-alpha-[(S)-4-Carboxy-4-(19-carboxynonadecanoylamino)butyryl]-[Glu14,His17,His 35]-pramlintide] ({C20 diacid-γGlu}-KCNTATCATQRLAEFLHHSSNNFGPILPPTNVGSHTY-NH2; disulfide 2-7 (inferred); C-terminus assumed) | 58 | 40 | 88 | 90
